Test results from patent publication US8999983B2, “Modulators of Hec1 activity and methods therefor” (Taivex Therapeutics Corporation, priority 2011, dated 2015).

Key:
cancer cells = test: DNA content analysis (propidium iodide, FACS); assay type: cell-based
Method: DNA Content Analysis: Cells were plated in a 10-cm culture plate and cultured overnight. Cells were incubated with the compound for the indicated time and collected at the indicated time points. Cells were fixed with 70% ethanol overnight, stained with propidium iodide solution (1.25 mg/ml propidium iodide (Sigma) and 20 μl/ml […] in PBS) and subjected to fluorescence activated cell sorting (FACS). The results were analyzed by Cell Quest software (BD Biosciences, San Jose Calif. 95131 USA).

MDA-MB-231 xenograft = test: Mouse xenograft study, MDA-MB-231 breast cancer; assay type: in vivo; settings: MDA-MB-231 breast cancer xenograft, nude mice
K562 = test: Antiproliferation assay (MTS), K562 cells; assay type: cell-based; settings: Homo sapiens, K562, 96 h, Table 1, read-out: Antiproliferative IC50 K562
In short: (§1)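 Cells seeded after overnight attachment were treated in triplicate for 96 h at 37 °C, 5% CO2, final DMSO below 1%. Viability read by MTS absorbance; concentration-response curves fitted by linear regression against DMSO controls.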

hERG potassium channels = biological target: T1, hERG potassium channels (Homo sapiens, UniProt Q12809); test: [3H]Astemizole competitive binding assay, hERG; settings: [3H]-astemizole displacement, hERG membrane protein
T1 construct: purchased PerkinElmer
Method: Here, [3H] Astemizole competitive binding assays were performed to determine the ability of compounds to displace the known radioligand [3H]-astemizole from the hERG potassium channels, following standard protocol with minor modifications. In brief, assays were performed in 200 μl of binding buffer (50 mM HEPES, pH 7.4, 60 mM KCl, and 0.1% BSA) containing 1.5 nM of [3H]astemizole, 3 μg/well of hERG membrane protein (PerkinElmer), and TAI-1 (in 1% DMSO final concentration) at 27° C. for 60 min. Nonspecific binding (NSB) was determined in the presence of 10 μM astemizole. […] Binding was terminated by rapid filtration onto polyethyleneimine-presoaked, buffer-washed UniFilter-96, GF/C (Perkin Elmer) using a vacuum manifold (Porvair Sciences). Captured radiolabel signal was detected using TopCount NXT (Perkin Elmer). […] All results are derived from two independent experiments.

Hela = test: Antiproliferation assay (MTS), HeLa cells; assay type: cell-based; settings: Homo sapiens, 96 h, Table 1, read-out: Antiproliferative IC50 Hela
In short: as §1

Caco-2 cell monolayers = test: Caco-2 cell permeability; assay type: in vitro ADME; settings: 2 hour
Method: Here, Caco-2 cell line (cat. HTB-37TM) was purchased from the ATCC. Cells were cultivated in T-75 flasks in a cell culture incubator set at 37° C., 5% CO2, 95% relative humidity. Cells were allowed to grow to reach 80-90% confluence before seeding. […] The cells were grown in culture medium consisting of Dulbecco's modified Eagle's medium supplemented with 10% fetal bovine serum, 100 U/mL penicillin and 100 μg/mL streptomycin. The culture medium was replaced every 2 days and the cells were maintained at 37° C., 95% relative humidity and 5% CO2.
For a quality integrity control of the monolayers of seeded cells, the Lucifer yellow (LY) transport experiment was performed to evaluate monolayer integrity. As for a quality control of each filter, the transepithelial electrical resistance (TEER) was measured before the start of and at the end of transport experiments. Physiologically and morphologically well developed Caco-2 cell monolayers with TEER values greater than 400 Ωcm^2 were used for the studies.
The solution volumes in apical and basolateral chambers were set to 0.4 and 0.6 ml respectively. Samples were taken from both the apical and basolateral compartment at the end of the 2 hour incubation at 37° C. […] The excitation and emission wavelengths were 490 nm and 530 nm, respectively.

T1 sequence (Q12809 whole entry): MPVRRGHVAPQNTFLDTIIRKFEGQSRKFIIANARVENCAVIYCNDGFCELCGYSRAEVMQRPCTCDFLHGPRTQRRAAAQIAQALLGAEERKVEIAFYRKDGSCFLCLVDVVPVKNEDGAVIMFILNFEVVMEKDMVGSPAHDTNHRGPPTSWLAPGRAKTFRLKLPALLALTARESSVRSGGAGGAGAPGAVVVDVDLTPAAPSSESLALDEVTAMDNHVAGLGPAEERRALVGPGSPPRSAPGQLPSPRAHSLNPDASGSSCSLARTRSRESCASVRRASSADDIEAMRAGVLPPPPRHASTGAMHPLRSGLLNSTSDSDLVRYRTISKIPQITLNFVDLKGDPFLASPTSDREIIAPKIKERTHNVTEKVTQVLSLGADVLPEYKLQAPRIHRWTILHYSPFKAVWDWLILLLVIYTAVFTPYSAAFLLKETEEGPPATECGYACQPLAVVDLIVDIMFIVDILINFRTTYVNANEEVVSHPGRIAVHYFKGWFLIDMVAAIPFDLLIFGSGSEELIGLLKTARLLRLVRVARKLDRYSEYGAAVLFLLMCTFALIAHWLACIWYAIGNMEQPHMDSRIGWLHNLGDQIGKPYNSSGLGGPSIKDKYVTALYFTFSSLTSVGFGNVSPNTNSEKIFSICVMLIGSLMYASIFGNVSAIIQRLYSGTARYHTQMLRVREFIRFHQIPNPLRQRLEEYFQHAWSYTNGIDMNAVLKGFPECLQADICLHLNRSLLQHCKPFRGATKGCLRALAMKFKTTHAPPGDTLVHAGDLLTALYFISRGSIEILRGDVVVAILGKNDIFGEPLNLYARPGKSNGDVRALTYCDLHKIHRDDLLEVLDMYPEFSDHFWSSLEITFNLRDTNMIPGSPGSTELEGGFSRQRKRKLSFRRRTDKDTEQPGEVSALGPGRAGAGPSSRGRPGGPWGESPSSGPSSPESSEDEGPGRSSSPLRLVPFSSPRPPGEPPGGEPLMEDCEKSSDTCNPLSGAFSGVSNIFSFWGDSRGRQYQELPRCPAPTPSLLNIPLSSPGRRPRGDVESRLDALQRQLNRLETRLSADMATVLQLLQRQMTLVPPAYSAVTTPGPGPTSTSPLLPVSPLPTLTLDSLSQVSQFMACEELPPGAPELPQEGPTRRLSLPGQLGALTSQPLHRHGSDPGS

IC50 (K562): 18 nM
IC50 (Hela): 21.1 nM
Caco-2 permeability (Caco-2 cell monolayers; 10 μM, both directions): moderate Caco-2 permeability
SMILES: COCCOc1cnc(Sc2cc(C)c(-c3csc(NC(=O)c4ccncc4)n3)c(C)c2)cn1 [Compound 27, N-(4-{4-(5-(2-methoxyethoxy)pyrazin-2-ylthio)-2,6-dimethylphenyl}thiazol-2-yl)isonicotinamide]
sub-G1 population (apoptotic cells) (cancer cells): increase in the sub-G1 population
xenograft tumor outgrowth (MDA-MB-231 xenograft): inhibition of xenograft tumor outgrowth
IC50 (hERG potassium channels): > 10000 nM
active efflux (Caco-2 cell monolayers; Caco-2, 10 μM): no indication of significant active efflux
